# Data reported in patent publication US8551470B2, “Use of substance P for mobilization of Mesenchymal stem cells or proliferation of Mesenchymal stem cells and for wound healing or facilitating wound healing” (Korea Institute of Radiological & Medical Sciences, priority 2004, dated 2013).
# Legend:
# human MSCs [1] = experiment: MSC migration and collagen degradation on 3-D collagen gel; assay type: cell-based; conditions: human MSCs on 3-D collagen gel, Substance-P in bottom dishes (0-100 nM), 72 h
# From the text: In order to determine the mechanism of Substance-P in the mobilization of MSCs, which are strongly attached onto the endosteal surface of bone marrow, Substance-P was first examined to determine whether it stimulates migration of human MSCs cultured on top of the 3-D collagen gel. The type I collagen gel matrix was made within a 12 mm millicell membrane (milipore: 12-μm pore size) according to the manufacturer's specifications (Nitta gelatin, Japan) and coated overnight with type IV collagen (Nitta). The MSCs were plated on top of the collagen gel, and the outer chamber was filled with Substance-P-containing MSCGM (Cambrex Bio Science). Clearance of the collagen gel was monitored by using the phase contrast microscopy (Olympus). At 72 h, the millicell insert and outer dishes were fixed and stained with hematoxylin, and then the culture supernatants were stored for gelatin zymography.
# MMP-9 and MMP-2 = experiment: Gelatin zymography of MSC culture supernatants; assay type: cell-based; conditions: culture medium of human MSCs on 3-D collagen gel, Substance-P 0-100 nM
# Experimental: The culture supernatants were examined for gelatin zymography. The eletrophoresis was performed for the culture supernatant in which sample buffer without mercaptoethanol was added thereto, in 8% SDS-PAGE. The gel was renatured with 2.5% of Triton x-100 in order to remove the SDS, and then was incubated with a developing buffer (50 mM Tris-HCl, pH 7.2 100 mM NaCl, 20 mM CaCl2) at 37° C. overnight, and the gel was stained with Coomassie blue.
# [2] = tested on: MMP-1, MMP-2, MMP-9, MT1-MMP, TIMP-1, TIMP-2; experiment: Immunoprecipitation of 35S-methionine labeled MMPs and TIMPs from MSCs; assay type: cell-based; conditions: human MSCs, Substance-P 0-100 nM, 35S-methionine labeling 16 h
# Experimental: The effect of Substance-P on the biosynthesis of MMPs (matrix metalloproteinases) and their inhibitors was examined by immunoprecipitation of the culture medium and the cell lysates of MSCs which were labeled with ^35S-methionine. The MSCs were treated with Substance-P and labeled with 50 μCi/ml ^35S-methionine (Amersham) for 16 h. The cell lysate was prepared with a lysis buffer (1% of NP40, 10 mM Tris-HCl, pH 7.4, 150 mM NaCl, 1 mM EDTA, 2 mM PMSF). For immunoprecipitation of the secreted MMP-1, MMP-2, MMP-9, TIMP-1 and TIMP-2, the culture supernatants were incubated with their specific antibodies [anti-MMP-1 (chemicon; Cat #MAB3307, 1:100), anti-MMP-2 (Chemicon; Cat #MAB13405, 1:200), anti-MMP-9 (Calbiochem; Cat #444236, 1:100), anti-TIMP-1 (Calbiochem; Cat #IM32L, 1:250) and anti-TIMP-2 (Calbiochem; Cat #IM11L, 1:250)] for 2 h under constant rotation, and the antibodies were collected by protein-G sepharose-4B (Biorad). The pellet was washed three times with an immunoprecipitation buffer ([…], 50 mM Tris-HCl pH 7.4, 0.2% SDS and 0.5% Nadeoxycholate), once with a high salt buffer (10 mM Tris-HCl, pH 7.4, 0.5 M NaCl), and once with a low salt buffer (10 mM Tris-HCl, pH 7.4). After SDS-PAGE, the gel was soaked in 2 M sodium salicylate, dried, and exposed to the X-ray film for 2 weeks. […]
# human MSCs [3] = experiment: Viable cell count (triphan blue exclusion) of MSCs after Substance-P treatment; assay type: cell-based; conditions: 3 day
# From the text: At 3 day after the treatment of Substance-P, the triphan blue excluded viable cells were counted.
# β-catenin = experiment: Immunofluorescence staining of β-catenin localization in MSCs; assay type: cell-based; conditions: human MSCs, 100 nM
# Experimental: In order to determine whether Substance-P affects the self-renewal capacity of human MSCs, β-catenin, which is the downstream effecter of the wnt signaling pathway, was examined. MSCs (Cambrex Bio Science) were plated in the density of 1×10^4/well, and incubated with MSCGM (Cambrex Bio Science). After adhesion of the cells, they were treated with Substance-P in each concentration, and incubated for 16 h and 48 h. The MSCs were fixed with 4% of paraformaldehyde and permeabilized with 0.3% of Triton X-100. After blocking nonspecific antigen with 20% normal goat serum which was diluted in phosphate buffer for 1 h, the coverslips were incubated with antibodies against β-catenin (BD Biosciencs; Cat #6010153, 1:100) for 90 min, and then with the FITC-conjugated secondary antibodies for 60 min(Vector). The cells were counterstained with DAPI, and examined by using confocal microscopy (Leica).
# VEGF and fibronectin = experiment: ELISA and Western blot analysis of VEGF and fibronectin in MSC culture supernatants; assay type: cell-based, human
# Experimental: ELISA and Western blot analysis of fibronectin and VEGF, which are down stream genes of Tcf/β-catenin, were carried out.
# cornea wound = experiment: Corneal alkali burn rabbit model with intravenous injection of Substance-P; assay type: in vivo
# From the text: New Zealand white rabbits weighing 2-3 kg were purchased from Samtako BioKorea. All these animal experiments were approved by Ethical Committee, Korea Institute of Radiological and Medical Sciences, and Chung-Ang University, and conducted in accordance with the ARVO Statement for the Use of Animal in Ophthalmic and Vision Research. For the alkali burn, the rabbit eyes were placed in contact with a 6 mm piece of circular Whatman filter paper soaked in 1N NaOH for 30 seconds. At 1, 3, 5, 7, 10 and 14 day after the alkali burn, rabbit eyes and whole blood were isolated.
# Thus, it was examined whether or not Substance-P only can stimulate corneal wound healing. To estimate the effect of Substance-P intravenous injection on acceleration of the wound healing, Substance-P at dosage 6.5 ug/kg was intravenously injected firstly immediately after the injury, and then secondly on 2nd day after the wound. At day 7 after the intravenous injection, cornea recovery was estimated by naked eyes with taking digital picture. […] The intravenous injection of Substance-P strongly expedited the cornea healing as shown by clearance of corneal opaqueness and disappearance of hemorrhagic area, compared with the non-injected control rabbit.
# To observe the wound healing degree in the histological level, rabbit eyes were isolated and fixed, and then, H&E staining and immunostaining for CD29 were carried out.
# [4] = Substance-P 6.5 ug/kg i.v. twice, vs non-injected
substance,measurement,setting,value
Substance-P,degradation of the collagen gel and MSC migration,human MSCs [1],stimulated degradation of the collagen gel and MSC migration in a dose dependent manner
same,MMP-9 and MMP-2 activities (gelatin zymography),MMP-9 and MMP-2,strong induction of MMP-9 and MMP-2 activities
same,"biosynthesis of MMP-1, MMP-2, MMP-9, and MT1-MMP",[2],stimulated in a dose dependent manner
same,biosynthesis of inhibitors TIMP-1 and TIMP-2,[2],inhibited
same,number of viable cells compared with the control group,human MSCs [3]; 1 nM Substance-P,1.7 times
same,number of viable cells compared with the control group,human MSCs [3]; 10 nM Substance-P,2.1 times
same,number of viable cells compared with the control group,human MSCs [3]; 100 nM Substance-P,2.2 times
same,nuclear localization of β-catenin,β-catenin; 16 h after Substance-P treatment,only a small number of MSCs at 100 nM showed nuclear localization of β-catenin
same,nuclear translocation of β-catenin,β-catenin; 48 h after Substance-P treatment,all the MSCs showed nuclear translocation of β-catenin
same,fibronectin induction (Western blot),VEGF and fibronectin; culture supernatant of Substance-P treated human MSCs,induced
same,VEGF induction (ELISA),VEGF and fibronectin; culture supernatants of Substance-P treated human MSCs,induced
same,"corneal regeneration (naked eye, digital picture)","cornea wound; Substance-P 6.5 ug/kg i.v. immediately after injury and on 2nd day, day 7, vs non-injected control",much faster
same,CD29 immunostaining of cornea,cornea wound; [4],CD 29+cells of small and spindle shape inside of collagen fibers
same,wound healing degree in histology (H&E staining),cornea wound; [4],"full thickness coverage of epithelium, well organized vasculature, and ordered array of dense collagen bundles"
same,healing rate (histological observation during the entire period),cornea wound; Substance-P i.v. vs control group,speeded up the healing rate faster than the control group
